Tested on: Haemonchus contortus L3 resistant strain
Test: In vitro motility assay, H. contortus L3 resistant strain
Assay type: cell-based
Details: 96 hours; for H. contortus L3 resistant MED: minimum efficacious dose, visual motility assessment; for % Motility: vs untreated control, LemnaTec, moxidectin 0.3 μM, pyrantel 10 μM, Compound A 100 μM, alone or combined

Compound | H. contortus L3 resistant MED [µM] | % Motility [%]
CN1CCCN=C1/C=C/c1cccs1 [Pyrantel, pyrantel pamoate] | 33 | 80.0
CO/N=C1\C[C@]2(C[C@@H]3C[C@@H](C/C=C(\C)C[C@@H](C)/C=C/C=C4\CO[C@@H]5[C@H](O)C(C)=C[C@@H](C(=O)O3)[C@]45O)O2)O[C@H](/C(C)=C/C(C)C)[C@H]1C [Moxidectin, moxidectin] | 1 | 64.3
CS(=O)(=O)CC(=O)N1CC2(C1)OCc1cc(C3=NO[C@@](c4cc(Cl)c(F)c(Cl)c4)(C(F)(F)F)C3)ccc12 [Compound A, (S)-1-(5′-(5-(3,5-dichloro-4-fluorophenyl)-5-(trifluoromethyl)-4,5-dihydroisoxazol-3-yl)-3′H-spiro[azetidine-3,1′-isobenzofuran]-1-yl)-2-(methylsulfonyl)ethanone] | >100 | 69.0

Source: patent US9226928B2, “Spirocyclic isoxazoline parasiticidal combinations” (Zoetis Services LLC, priority 2012, dated 2016)
